Source: ChEMBL document CHEMBL1201862, “PubChem BioAssay data set” (2004)
One block for each compound: values may come before it. Active and inactive are the calls of the source.

Tests used:
[1] = target: Benomyl/methotrexate resistance protein (Candida albicans, UniProt P28873); assay: CaMdr1 efflux pump inhibitor potency, dose response, singleplex, Cherry Pick1 hits (AID 588608); type: functional
[2] = target: Protein disulfide-isomerase (Homo sapiens, UniProt P07237); assay: PDI inhibitors, insulin aggregation turbidity, dose response, biochemical, absorbance, cherry-picked samples (AID 602350); type: functional
[3] = target: Prothrombin (Bos taurus, UniProt P00735); assay: thrombin inhibition, dose response, biochemical, fluorescence polarization, uHTS hits (AID 602369); type: functional
[4] = target: 26S proteasome non-ATPase regulatory subunit 14 (Homo sapiens, UniProt O00487); assay: inhibition of proteasome subunit RPN11 – biochemical, fluorescence polarization, uHTS hits, confirmation (AID 602368); type: functional
[5] = target: 72 kDa type IV collagenase (Homo sapiens, UniProt P08253); assay: Dose Response validation of uHTS RPN11 inhibitor hits using a MMP-2 Fluorescence assay.; type: functional
[6] = target: Dual specificity protein phosphatase 3 (Homo sapiens, UniProt P51452); assay: VHR phosphatase inhibition, dose response, selectivity assay for STEP inhibitor project, biochemical (AID 602374); type: functional; conditions: read-out: IC50_Mean
[7] = target: Tyrosine-protein phosphatase non-receptor type 11 (Homo sapiens, UniProt Q06124); assay: SHP2 phosphatase inhibition, dose response, selectivity assay for STEP inhibitor project, biochemical (AID 602367); type: functional; conditions: read-out: IC50_Mean
[8] = target: Tyrosine-protein phosphatase non-receptor type 5 (Homo sapiens, UniProt P54829); assay: STEP phosphatase inhibitors, confirmation, biochemical, fluorescence intensity, uHTS hits (AID 602372); type: functional; conditions: read-out: IC50_Mean
[9] = test system: INS1; assay: beta cell apoptosis inhibitors, cytokine rescue, dose response, luminescence, retest (AID 449756); type: functional, cell-based; conditions: Rattus norvegicus;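 note: cell death triggered by IL-1 beta plus TNF-alpha plus IFN-gamma mixture; protective hits raise ATP signal compared with cytokine alone wells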
[10] = target: T1, High affinity choline transporter 1 (Homo sapiens, UniProt Q9GZV3); assay: CHT inhibitors, dose response, cell-based, 5-point CRC, membrane potential dye (AID 504840); type: functional
T1 sequence (Q9GZV3 whole entry): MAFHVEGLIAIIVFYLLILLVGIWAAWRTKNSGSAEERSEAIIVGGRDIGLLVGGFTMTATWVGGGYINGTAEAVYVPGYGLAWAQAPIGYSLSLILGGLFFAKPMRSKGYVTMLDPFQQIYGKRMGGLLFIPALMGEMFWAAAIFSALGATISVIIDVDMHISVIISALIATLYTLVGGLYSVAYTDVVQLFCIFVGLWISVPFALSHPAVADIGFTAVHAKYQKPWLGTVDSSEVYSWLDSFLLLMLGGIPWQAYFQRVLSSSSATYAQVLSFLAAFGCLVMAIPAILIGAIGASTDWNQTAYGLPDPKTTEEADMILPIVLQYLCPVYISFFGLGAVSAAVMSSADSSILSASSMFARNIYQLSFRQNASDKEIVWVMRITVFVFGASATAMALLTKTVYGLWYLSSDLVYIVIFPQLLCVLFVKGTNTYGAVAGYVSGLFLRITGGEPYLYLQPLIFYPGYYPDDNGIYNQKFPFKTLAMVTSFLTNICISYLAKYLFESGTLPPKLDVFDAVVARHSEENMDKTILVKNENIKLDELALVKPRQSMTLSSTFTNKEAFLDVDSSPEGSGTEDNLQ

[11] = target: T1, High affinity choline transporter 1; assay: CHT inhibitors, dose response, cell-based, 10-point CRC, membrane potential dye (AID 588401); type: functional;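 note: membrane potential dye fluorescence of choline-evoked depolarization via CHT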
[12] = target: Potassium voltage-gated channel subfamily KQT member 2 (Rattus norvegicus, UniProt O88943); assay: KCNQ2 potassium channel inhibitors, dose response, cell-based, automated electrophysiology, set II, rat KCNQ2 (AID 588637); type: functional
[13] = target: T2, Sentrin-specific protease 7 (Homo sapiens, UniProt Q9BQF6); assay: SENP7 protease inhibitors, SAR follow-up, biochemical, luminescence (AID 504497); type: functional
T2 sequence (Q9BQF6 whole entry): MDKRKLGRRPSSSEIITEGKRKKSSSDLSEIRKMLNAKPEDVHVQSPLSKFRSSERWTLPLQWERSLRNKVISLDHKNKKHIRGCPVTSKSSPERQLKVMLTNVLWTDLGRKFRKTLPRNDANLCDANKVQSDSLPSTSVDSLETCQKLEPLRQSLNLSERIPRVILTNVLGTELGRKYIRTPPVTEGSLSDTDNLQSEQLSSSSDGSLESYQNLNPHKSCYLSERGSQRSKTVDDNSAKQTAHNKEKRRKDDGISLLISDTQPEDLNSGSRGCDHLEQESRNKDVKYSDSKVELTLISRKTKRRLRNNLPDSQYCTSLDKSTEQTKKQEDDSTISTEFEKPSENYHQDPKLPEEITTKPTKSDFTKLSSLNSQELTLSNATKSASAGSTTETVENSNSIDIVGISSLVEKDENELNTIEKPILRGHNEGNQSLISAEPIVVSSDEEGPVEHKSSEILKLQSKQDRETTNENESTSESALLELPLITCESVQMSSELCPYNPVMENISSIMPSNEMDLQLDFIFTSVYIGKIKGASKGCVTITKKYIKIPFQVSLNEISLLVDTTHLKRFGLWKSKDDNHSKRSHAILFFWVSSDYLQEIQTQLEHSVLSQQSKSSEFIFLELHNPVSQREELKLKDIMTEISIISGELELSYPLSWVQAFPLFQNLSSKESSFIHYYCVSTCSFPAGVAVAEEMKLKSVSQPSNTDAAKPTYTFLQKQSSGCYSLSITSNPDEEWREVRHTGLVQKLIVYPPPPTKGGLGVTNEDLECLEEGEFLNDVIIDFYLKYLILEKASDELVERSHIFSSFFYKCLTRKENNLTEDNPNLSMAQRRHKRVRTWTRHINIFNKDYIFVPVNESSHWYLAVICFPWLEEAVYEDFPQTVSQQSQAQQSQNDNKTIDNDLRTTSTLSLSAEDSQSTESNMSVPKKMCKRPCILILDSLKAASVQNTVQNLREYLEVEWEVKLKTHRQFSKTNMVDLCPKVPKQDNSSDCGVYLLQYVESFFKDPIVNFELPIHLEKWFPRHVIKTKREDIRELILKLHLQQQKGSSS

[14] = target: T3, Sentrin-specific protease 8 (Homo sapiens, UniProt Q96LD8); assay: SENP8 protease inhibitors, SAR follow-up, biochemical, luminescence (AID 504501); type: functional
T3 sequence (Q96LD8 whole entry): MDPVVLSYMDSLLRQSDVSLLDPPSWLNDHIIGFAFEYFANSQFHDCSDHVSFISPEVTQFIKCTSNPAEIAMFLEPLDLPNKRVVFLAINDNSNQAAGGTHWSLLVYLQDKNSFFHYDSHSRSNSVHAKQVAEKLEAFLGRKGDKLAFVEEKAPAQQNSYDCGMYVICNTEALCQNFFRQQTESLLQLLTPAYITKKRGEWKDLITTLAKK

[15] = target: T4, Sentrin-specific protease 6 (Homo sapiens, UniProt Q9GZR1); assay: SAR Analysis of small molecule inhibitors of Sentrin-specific protease 6 (SENP6) using a Luminescent assay. [Related pubchem assays (depositor defined):AID2582, AID2599]; type: functional
T4 sequence (Q9GZR1 whole entry): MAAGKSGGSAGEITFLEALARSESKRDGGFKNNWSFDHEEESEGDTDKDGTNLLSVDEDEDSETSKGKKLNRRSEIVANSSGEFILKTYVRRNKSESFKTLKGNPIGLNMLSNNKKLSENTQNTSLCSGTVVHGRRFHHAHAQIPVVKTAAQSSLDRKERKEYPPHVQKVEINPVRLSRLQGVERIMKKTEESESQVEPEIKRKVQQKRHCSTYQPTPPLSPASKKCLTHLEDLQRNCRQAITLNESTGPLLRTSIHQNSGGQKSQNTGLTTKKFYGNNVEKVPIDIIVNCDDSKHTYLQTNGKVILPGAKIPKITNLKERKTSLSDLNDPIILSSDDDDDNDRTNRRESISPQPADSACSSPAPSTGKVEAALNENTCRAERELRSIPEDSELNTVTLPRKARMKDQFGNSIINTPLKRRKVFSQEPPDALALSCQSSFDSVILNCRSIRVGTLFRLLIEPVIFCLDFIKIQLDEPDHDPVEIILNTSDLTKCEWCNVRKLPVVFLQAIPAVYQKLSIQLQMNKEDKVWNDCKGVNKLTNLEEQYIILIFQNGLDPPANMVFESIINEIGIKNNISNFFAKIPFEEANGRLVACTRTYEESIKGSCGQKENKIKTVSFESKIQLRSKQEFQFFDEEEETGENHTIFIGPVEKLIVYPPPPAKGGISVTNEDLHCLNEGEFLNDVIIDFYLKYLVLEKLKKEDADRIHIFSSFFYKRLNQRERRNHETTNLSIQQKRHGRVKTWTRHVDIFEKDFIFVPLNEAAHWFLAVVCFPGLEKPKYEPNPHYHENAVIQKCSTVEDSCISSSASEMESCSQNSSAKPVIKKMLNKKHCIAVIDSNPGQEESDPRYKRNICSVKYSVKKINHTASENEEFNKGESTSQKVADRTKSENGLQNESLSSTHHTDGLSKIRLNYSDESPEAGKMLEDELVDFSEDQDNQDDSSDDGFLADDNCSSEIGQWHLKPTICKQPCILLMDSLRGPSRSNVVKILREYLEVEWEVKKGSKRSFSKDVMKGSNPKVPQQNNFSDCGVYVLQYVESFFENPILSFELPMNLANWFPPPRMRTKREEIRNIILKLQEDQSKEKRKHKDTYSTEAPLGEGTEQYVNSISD

[16] = target: T5, Caspase-3 (Homo sapiens, UniProt P42574); assay: SAR Analysis of small molecule inhibitors of Sentrin-specific proteases (SENPs) using a Caspase-3 Selectivity assay. [Related pubchem assays (depositor defined):AID2540, AID2599, AID434973, AID489001]; type: functional
T5 sequence (P42574 whole entry): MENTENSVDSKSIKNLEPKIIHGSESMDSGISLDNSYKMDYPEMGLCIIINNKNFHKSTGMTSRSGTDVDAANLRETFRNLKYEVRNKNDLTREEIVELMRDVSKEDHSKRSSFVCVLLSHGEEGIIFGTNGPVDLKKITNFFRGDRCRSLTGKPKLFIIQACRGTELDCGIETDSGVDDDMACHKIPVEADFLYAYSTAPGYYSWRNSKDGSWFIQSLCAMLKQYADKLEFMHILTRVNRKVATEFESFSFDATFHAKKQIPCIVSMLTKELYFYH

[17] = target: Melanin-concentrating hormone receptor 1 (Homo sapiens, UniProt Q99705); assay: Late-stage fluorescence-based counterscreen for antagonists of the G-protein coupled receptor 7 (GPR7): cell-based dose response assay to identify antagonists of the melanin-concentrating hormone receptor 1 (MCHR1) Set 5.; type: functional
[18] = target: Aryl hydrocarbon receptor (Homo sapiens, UniProt P35869); conditions: Potency;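 note: confirmatory quantitative high-throughput screen measuring activation of the AhR signaling pathway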
[19] = target: Cytochrome P450 3A4 (Homo sapiens, UniProt P08684); conditions: Potency;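 note: confirmatory qHTS run detecting inhibitors and substrates of CYP3A4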
Cytochrome P450 3A4, sequence (P08684 whole entry): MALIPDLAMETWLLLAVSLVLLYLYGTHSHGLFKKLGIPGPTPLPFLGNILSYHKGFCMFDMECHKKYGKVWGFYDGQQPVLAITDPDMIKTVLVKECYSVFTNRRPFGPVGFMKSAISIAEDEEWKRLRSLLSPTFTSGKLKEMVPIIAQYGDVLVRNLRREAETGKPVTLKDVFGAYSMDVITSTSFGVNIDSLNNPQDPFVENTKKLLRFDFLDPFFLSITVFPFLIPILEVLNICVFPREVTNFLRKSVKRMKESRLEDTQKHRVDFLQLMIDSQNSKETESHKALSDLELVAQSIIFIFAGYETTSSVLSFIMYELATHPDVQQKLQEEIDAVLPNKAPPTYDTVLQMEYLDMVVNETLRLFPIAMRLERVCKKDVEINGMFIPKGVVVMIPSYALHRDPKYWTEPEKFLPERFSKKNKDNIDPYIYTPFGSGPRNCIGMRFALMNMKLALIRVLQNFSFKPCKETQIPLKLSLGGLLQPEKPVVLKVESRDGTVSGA

26S proteasome non-ATPase regulatory subunit 14, sequence (O00487 whole entry): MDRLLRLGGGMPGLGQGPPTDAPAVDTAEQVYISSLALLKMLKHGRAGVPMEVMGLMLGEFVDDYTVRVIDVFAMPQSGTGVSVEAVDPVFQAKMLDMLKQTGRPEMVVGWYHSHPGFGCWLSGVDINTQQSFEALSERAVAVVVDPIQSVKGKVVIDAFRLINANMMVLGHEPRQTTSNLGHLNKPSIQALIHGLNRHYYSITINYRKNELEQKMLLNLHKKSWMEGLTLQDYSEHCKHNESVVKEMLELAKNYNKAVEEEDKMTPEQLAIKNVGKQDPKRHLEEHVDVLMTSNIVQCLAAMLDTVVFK
Protein disulfide-isomerase, sequence (P07237 whole entry): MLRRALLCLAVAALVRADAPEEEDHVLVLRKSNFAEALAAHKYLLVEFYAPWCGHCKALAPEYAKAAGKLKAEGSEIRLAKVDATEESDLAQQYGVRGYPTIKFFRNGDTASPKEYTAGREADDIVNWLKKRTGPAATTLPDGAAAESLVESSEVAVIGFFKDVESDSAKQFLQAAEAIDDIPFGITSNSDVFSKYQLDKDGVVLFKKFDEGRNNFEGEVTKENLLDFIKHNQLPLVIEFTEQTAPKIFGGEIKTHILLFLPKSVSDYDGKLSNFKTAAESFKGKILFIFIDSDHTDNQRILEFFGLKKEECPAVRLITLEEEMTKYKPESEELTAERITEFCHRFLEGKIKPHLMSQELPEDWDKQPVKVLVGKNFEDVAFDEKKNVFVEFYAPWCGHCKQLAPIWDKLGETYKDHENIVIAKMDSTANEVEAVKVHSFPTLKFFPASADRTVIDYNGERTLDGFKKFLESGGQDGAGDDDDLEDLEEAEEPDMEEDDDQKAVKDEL
72 kDa type IV collagenase, sequence (P08253 whole entry): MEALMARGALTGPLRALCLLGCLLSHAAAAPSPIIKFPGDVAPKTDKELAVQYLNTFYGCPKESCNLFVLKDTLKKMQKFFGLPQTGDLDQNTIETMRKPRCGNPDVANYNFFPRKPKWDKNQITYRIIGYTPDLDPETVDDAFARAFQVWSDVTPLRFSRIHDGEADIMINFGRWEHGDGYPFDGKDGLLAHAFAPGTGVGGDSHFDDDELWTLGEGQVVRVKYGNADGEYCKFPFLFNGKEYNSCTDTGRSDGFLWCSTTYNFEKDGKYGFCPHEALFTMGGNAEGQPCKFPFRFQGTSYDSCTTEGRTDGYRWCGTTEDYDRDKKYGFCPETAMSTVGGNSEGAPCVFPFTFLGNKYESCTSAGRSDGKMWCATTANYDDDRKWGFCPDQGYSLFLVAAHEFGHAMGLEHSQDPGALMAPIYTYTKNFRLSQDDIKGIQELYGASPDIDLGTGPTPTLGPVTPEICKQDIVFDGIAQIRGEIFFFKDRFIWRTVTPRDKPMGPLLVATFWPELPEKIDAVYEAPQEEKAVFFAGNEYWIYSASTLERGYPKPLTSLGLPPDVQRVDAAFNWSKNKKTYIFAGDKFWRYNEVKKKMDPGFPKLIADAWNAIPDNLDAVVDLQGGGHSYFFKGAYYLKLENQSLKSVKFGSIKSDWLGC
Aryl hydrocarbon receptor, sequence (P35869 whole entry): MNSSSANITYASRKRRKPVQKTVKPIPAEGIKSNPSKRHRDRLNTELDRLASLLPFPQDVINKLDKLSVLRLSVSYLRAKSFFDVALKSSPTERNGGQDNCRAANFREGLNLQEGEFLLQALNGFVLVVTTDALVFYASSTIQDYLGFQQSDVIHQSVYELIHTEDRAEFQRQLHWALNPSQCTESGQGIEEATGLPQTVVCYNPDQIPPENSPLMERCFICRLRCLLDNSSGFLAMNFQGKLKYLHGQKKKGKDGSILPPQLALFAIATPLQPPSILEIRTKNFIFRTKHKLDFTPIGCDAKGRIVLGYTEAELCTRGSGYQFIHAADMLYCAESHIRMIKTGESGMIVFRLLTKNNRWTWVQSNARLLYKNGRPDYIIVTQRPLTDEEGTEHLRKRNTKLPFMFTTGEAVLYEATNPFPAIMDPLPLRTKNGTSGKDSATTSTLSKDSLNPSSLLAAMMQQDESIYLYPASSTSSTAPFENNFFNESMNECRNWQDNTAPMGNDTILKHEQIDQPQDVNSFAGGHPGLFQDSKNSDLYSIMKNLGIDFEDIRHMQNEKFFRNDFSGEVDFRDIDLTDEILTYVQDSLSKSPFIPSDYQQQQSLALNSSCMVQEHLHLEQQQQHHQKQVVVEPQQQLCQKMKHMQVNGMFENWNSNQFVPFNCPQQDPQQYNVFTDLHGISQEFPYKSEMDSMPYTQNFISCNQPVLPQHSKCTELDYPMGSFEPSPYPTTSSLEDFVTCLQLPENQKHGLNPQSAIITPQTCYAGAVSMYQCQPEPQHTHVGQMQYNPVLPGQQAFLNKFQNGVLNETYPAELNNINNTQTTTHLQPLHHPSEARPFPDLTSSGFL
Benomyl/methotrexate resistance protein, sequence (P28873 whole entry): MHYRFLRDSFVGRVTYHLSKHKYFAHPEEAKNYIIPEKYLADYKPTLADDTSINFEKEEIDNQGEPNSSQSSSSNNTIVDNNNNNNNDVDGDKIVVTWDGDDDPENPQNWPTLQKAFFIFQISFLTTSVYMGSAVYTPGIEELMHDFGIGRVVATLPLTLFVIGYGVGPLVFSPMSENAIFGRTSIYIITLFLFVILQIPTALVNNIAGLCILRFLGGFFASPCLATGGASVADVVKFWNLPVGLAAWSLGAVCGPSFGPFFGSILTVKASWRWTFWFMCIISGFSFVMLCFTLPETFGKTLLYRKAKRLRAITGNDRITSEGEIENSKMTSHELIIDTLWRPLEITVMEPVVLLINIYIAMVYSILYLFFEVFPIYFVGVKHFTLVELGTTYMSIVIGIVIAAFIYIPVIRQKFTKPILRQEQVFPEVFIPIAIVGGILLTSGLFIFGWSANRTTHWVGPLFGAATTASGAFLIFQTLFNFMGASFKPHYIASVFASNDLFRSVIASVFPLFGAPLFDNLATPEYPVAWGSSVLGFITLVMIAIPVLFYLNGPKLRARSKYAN
Melanin-concentrating hormone receptor 1, sequence (Q99705 whole entry): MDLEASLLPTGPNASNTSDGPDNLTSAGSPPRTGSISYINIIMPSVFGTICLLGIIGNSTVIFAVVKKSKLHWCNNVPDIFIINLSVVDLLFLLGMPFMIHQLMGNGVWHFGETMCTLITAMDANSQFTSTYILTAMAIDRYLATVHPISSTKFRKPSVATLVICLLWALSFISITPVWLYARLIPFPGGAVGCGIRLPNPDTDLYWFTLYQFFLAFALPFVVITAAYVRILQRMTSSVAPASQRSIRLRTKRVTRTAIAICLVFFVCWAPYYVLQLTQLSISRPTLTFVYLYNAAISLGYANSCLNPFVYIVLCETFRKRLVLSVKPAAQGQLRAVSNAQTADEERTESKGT
Dual specificity protein phosphatase 3, sequence (P51452 whole entry): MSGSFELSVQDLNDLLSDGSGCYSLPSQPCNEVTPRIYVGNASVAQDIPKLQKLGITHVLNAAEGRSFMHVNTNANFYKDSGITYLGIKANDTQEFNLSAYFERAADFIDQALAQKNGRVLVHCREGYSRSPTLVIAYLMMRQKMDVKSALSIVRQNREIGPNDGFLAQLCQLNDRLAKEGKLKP
Tyrosine-protein phosphatase non-receptor type 5, sequence (P54829 whole entry): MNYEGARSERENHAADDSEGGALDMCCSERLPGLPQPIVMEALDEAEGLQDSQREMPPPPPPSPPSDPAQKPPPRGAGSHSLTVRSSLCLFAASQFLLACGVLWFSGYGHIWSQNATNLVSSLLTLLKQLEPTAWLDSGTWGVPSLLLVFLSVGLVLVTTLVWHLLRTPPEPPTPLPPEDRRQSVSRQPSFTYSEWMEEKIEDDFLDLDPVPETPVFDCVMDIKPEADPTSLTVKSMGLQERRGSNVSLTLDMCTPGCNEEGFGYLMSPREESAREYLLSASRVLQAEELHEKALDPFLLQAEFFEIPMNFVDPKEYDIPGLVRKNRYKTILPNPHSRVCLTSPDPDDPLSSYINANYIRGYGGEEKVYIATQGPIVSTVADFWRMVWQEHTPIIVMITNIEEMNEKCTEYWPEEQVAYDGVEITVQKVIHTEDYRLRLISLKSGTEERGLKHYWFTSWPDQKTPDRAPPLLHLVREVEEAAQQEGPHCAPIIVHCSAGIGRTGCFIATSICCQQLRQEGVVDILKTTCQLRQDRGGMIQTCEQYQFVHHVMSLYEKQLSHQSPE

IC50 [6]: > 80 µM (inactive) | IC50 [7]: > 80 µM (inactive) | IC50 [8]: 57 µM (inactive)
Compound: CCc1ccc(NC(=O)Cc2cn(C)c3ccccc23)cc1

IC50 [10]: 0.479 µM (active) | IC50 [11]: 0.178 µM (active)
Compound: OC(CNC1Cc2ccccc2C1)c1ccccc1 (centres undefined)

IC50 [12]: 0.64 µM (active)
Compound: O=C(COc1ccc(F)cc1Cl)Nc1ccccc1C(=O)N1CCCCC1

IC50 [13]: > 99 µM (inactive) | IC50 [15]: > 99 µM (inactive) | IC50 [16]: > 99 µM (inactive)
Compound: Cc1nn(-c2ccccc2)c2c1C(c1ccc(OC(F)F)cc1)C(C#N)=C(N)O2 (centres undefined)
IC50 [14]: > 99 µM (inactive)

IC50 [17]: 1.22 µM (active)
Compound: CSc1ccc(Oc2c(Cl)cnn(Cc3cccc4ccccc34)c2=O)cc1

The remaining lines, values behind:

Compound: NC(=O)c1nc(-c2ccco2)nc2c1[nH]c(=O)n2-c1ccc(Cl)c(Cl)c1
EC50 [1]: 14 µM (active)

Compound: CCSc1nnc([C@H](Cc2c[nH]c3ccccc23)NC(=O)OC(C)(C)C)o1
AC50 [2]: 19.5 µM (active)

Compound: CCSC1=N/C(=C\c2ccc3c(c2)OCO3)C(=O)S1
IC50 [3]: 64.3 µM (active) | IC50 [4]: 25 µM (active) | IC50 [5]: > 100 µM (inactive)

Compound: S=C(c1cn(CCOc2cccc3ccccc23)c2ccccc12)N1CCCC1
IC50 [3]: 41.8 µM (active) | IC50 [4]: 32.9 µM (active) | IC50 [5]: > 100 µM (inactive) | AC50 [9]: 4.3 µM (active)

Compound: COc1ccc(C(=O)NC(C)CCn2cccn2)cc1OC1CCN(C(C)C)CC1 (centres undefined)
IC50 [10]: 6.86 µM (active) | IC50 [11]: 4.22 µM (active)

Compound: CCOc1ccc2nc(N(CCCn3ccnc3)C(=O)c3ccc(Cl)s3)sc2c1
IC50 [13]: > 99 µM (inactive) | IC50 [14]: > 99 µM (inactive) | IC50 [15]: > 99 µM (inactive) | IC50 [16]: > 99 µM (inactive)

Compound: C[C@H]1CN([C@@H](C)CO)C(=O)c2cc(NC(=O)Cc3cn(C)c4ccccc34)ccc2O[C@@H]1CN(C)S(=O)(=O)c1ccc(F)cc1
AC50 [2]: 19.5 µM (active)

Compound: CC(C)(C)C(=O)C(Oc1ccc(Cl)cc1)n1cncn1 (centres undefined) [TRIADIMEFON]
AC50 [18]: 70.8 µM (inconclusive) | AC50 [19]: 0.794 µM (inconclusive)
